The text below walks through data of PMC5940854, “Nitrothiophene carboxamides, a novel narrow spectrum antibacterial series: Mechanism of action and Efficacy” (Scientific Reports, 2018).

≈ marks a conversion by molar mass, not a printed value. Residues, ends and D or L forms follow the SMILES beside them. *: point of attachment. βNA = c1ccc2cc(N*)ccc2c1

In one assay the target is T1, AcrB (Escherichia coli, UniProt P31224).
T1 construct: Full length acrB gene was amplified from E. coli; BW25113; His-tag (C); made in house; host or cells: E. coli C43(DE3), plasmid pET21a
The experiment in a line: Thermal shift assay with CPM dye. Also noted: species or system E. coli. Particulars: AcrB vs apo-protein; > 1°C implies binding. The protocol: AcrB overexpression protocol is adopted from Du. et al.[31]. Full length acrB gene was amplified from E. coli. BW25113 using Forward Primer 5′-[…]-3′ Reverse Primer 5′-[…]-3′ and cloned into the plasmid pET21a. The resultant plasmid that would express AcrB with a C-terminal His-tag is transformed into E. coli strain C43(DE3). The cells are induced on reaching A600 = 0.6 and transferred to 18 °C. The culture is harvested by centrifugation and re-suspended in Buffer A (100 mM Sodium Phosphate, 100 mM NaCl, 10 mM Imidazole, pH = 7.4, 100 µg/ml protease inhibitor cocktail from Roche and 5 U/ml DNase I and 5 mg/ml lysozyme). The cells are lysed at 15000 psi using Emulsiflex and centrifuged at 8000 g for removing cell debris. The membrane is isolated by centrifuging the resultant supernatant at 125000 g (see Coomassie stained SDS-PAGE of the purified protein Figure S9). Membrane solubilisation is done using Buffer A and 1.5% DDM (n-Dodecyl-β-D-Maltoside). Ni-NTA chromatography is used to purify the His-tagged protein and eluted in Buffer A with 300 mM Imidazole and 1.5% DDM.
The assay is performed according to protocols established elsewhere. CPM (N- [4-(7-diethylamino-4-methyl-3-coumarinyl) phenyl] maleimide) is a thiol specific fluorochrome (Excitation 387 nm, Emission 463 nm) and is non-fluorescent in an unbound state. The proteins, on thermal unfolding exposes cysteines allowing the CPM to bind and fluoresce. […]. The thermal denaturation is performed in a fluorimeter that is heated from 25 to 90 °C at a ramp rate of 1 °C/min. The Tm is calculated by analysing the melting profiles using Boltzmann Sigmoid function (GraphPad Prism) and ∆Tm is calculated by measuring the difference between the Tm of inhibitor bound protein and the apo-protein.

In assay [1] the target is T2, AcrB efflux pump in E. coli BW25113 (Escherichia coli, UniProt P31224).
T2 construct: endogenous in cells; host or cells: E. coli BW25113 (wild type)
The experiment in a line: Nile red efflux assay (whole-cell competition). It is filed as cell-based. The protocol:
The Nile red assay is adopted from Bohnert et al.[18]. An overnight culture of E. coli strain BW25113 is harvested and is resuspended in 20 mM potassium phosphate buffer (pH 7.0) containing 1 mM MgCl2 (PPB). The cells are adjusted to an A660 of 1.0 in PPB and aliquoted into glass tubes (2 ml each). Carbonylcyanide-m-chlorophenylhydrazone (CCCP; a protonophore that uncouples the electron transport chain and thus inhibits AcrB mediated efflux) is added to a final concentration of 10 µM (5 mM stock solution in 50% DMSO) and incubated for 15 minutes before adding the potential competitor at desired concentrations. Nile red is then added (stock solution of 5 mM in 10% dimethyl formamide-90% ethanol [vol/vol]) to a final concentration of 5 µM. The cell suspension is incubated at room temperature on a shaker for 3 hours. The cells are harvested and resuspended in 2 ml PPB in the presence of the competitor. The cell suspension is aliquoted in a fluorimeter cuvette, to which, 100 µl of 1 M Glucose is added to activate the electron transport chain. The rate of efflux is measured by Tefflux50, it is the time taken for 50% of Nile red to be effluxed out in presence of the compounds. The fluorescence is measured (Excitation 552 nm, Emission 636 nm) for 200 seconds.

The test system of another assay is E. coli BW25113. As to the kind of experiment: Neutropenic thigh infection, E. coli BW25113. The format is in vivo, BALB/c mice. Particulars: Study TI-2014-008, BW25113, 100mg/kg per oral.
Assay [2] deals with E. coli ∆acrB JW0451-2. As to the kind of experiment: Neutropenic thigh infection, E. coli ∆acrB. The format is in vivo, BALB/c mice.
For another assay, the system named is E. coli ∆tolC JW5503-1. The experiment in a line: MIC, E. coli ∆tolC. The format is cell-based. Particulars: Escherichia coli, read-out: MIC tolC. The protocol:
(§1) The inoculum used for all the experiments is derived from a single seed lot that is maintained as glycerol stocks at −80 °C and are sub cultured on LB plate for isolated colonies. Single colony of each strain is grown in M9 medium. All test compound stocks and dilutions are prepared in DMSO. Serial two-fold dilutions of compounds are prepared separately, with the concentrations ranging from 2 mg/mL to 0.015 mg/mL. To 150 µl (3–7 × 10^5 CFU/ml) of bacterial culture in 96 well microtitre plates, 3 μL compound from each of the dilutions is added to respective wells to obtain final concentrations ranging from 40 µg/mL to 0.3 µg/mL of the test compounds. Media control, culture control and appropriate reference drug controls are included. […] Growth is monitored by checking absorbance at 600 nm (A600). […] The samples from MIC and above concentrations are plated for MBC (Minimum Bactericidal Concentration). The samples are diluted 1:10 and plated on LB agar plates. […] The killing kinetics is determined by enumerating survivors at various time points following compound exposure. E. coli cells (~10^7 CFU/ml; A600 of 0.1) are treated with various concentrations (40 µg/mL to 0.3 µg/mL) of compounds in a 96-well microtitre plate. At various time intervals (0 to 8 h), 30 μl volumes of treated cultures are serially diluted and plated on LB agar plates. […] Data is expressed as the log10 CFU for each drug treatment.

Assay [3] deals with E. coli yciM knockout strain. The experiment in a line: MIC, efflux pump knockout yciM. The format is cell-based. Particulars: Escherichia coli, read-out: MIC yciM. The protocol:
as §1, with “plate.” for “plate. At various time intervals (0 to 8 h), 30 μl volumes of treated cultures are serially diluted and plated on LB agar plates.”

The subject of assay [4] is E. coli acrD knockout strain. The experiment in a line: MIC, efflux pump knockout acrD. It is filed as cell-based. Particulars: Escherichia coli, read-out: MIC acrD. The protocol: as §1, with “plate.” for “plate. At various time intervals (0 to 8 h), 30 μl volumes of treated cultures are serially diluted and plated on LB agar plates.”
Assay [5] concerns E. coli bcr knockout strain. The experiment in a line: MIC, efflux pump knockout bcr. The format is cell-based. Particulars: Escherichia coli, read-out: MIC bcr. The protocol: as §1, with “plate.” for “plate. At various time intervals (0 to 8 h), 30 μl volumes of treated cultures are serially diluted and plated on LB agar plates.”
In assay [6] the test system is wild-type E. coli CGSC#7636 (BW25113). As to the kind of experiment: MIC, wild-type E. coli. It is filed as cell-based. Particulars: Escherichia coli, BW25113, E. coli WT BW25113; read-out: MIC WT. The protocol:
as §1

The subject of assay [7] is E. coli acrZ knockout strain. As to the kind of experiment: MIC, efflux pump knockout acrZ. Particulars: Escherichia coli, read-out: MIC acrZ. It is filed as cell-based. The protocol: as §1, with “plate.” for “plate. At various time intervals (0 to 8 h), 30 μl volumes of treated cultures are serially diluted and plated on LB agar plates.”
For assay [8], the system named is E. coli mdtG knockout strain. As to the kind of experiment: MIC, efflux pump knockout mdtG. It is filed as cell-based. Particulars: Escherichia coli, read-out: MIC mdtG. The protocol:
as §1, with “plate.” for “plate. At various time intervals (0 to 8 h), 30 μl volumes of treated cultures are serially diluted and plated on LB agar plates.”

Assay [9] relates to E. coli ∆acrB JW0451-2. The experiment in a line: MIC, E. coli ∆acrB. It is filed as cell-based. Particulars: Escherichia coli, read-out: MIC acrB. The protocol:
as §1

Assay [10] concerns E. coli mdtK knockout strain. The experiment in a line: MIC, efflux pump knockout mdtK. The format is cell-based. Particulars: Escherichia coli, read-out: MIC mdtK. The protocol:
as §1, with “plate.” for “plate. At various time intervals (0 to 8 h), 30 μl volumes of treated cultures are serially diluted and plated on LB agar plates.”

The subject of assay [11] is E. coli emrB knockout strain. The experiment in a line: MIC, efflux pump knockout emrB. Particulars: Escherichia coli, read-out: MIC emrB. The format is cell-based. The protocol: as §1, with “plate.” for “plate. At various time intervals (0 to 8 h), 30 μl volumes of treated cultures are serially diluted and plated on LB agar plates.”
Assay [12] has as its system E. coli mdtL knockout strain. As to the kind of experiment: MIC, efflux pump knockout mdtL. The format is cell-based. Particulars: Escherichia coli, read-out: MIC mdtL. The protocol: as §1, with “plate.” for “plate. At various time intervals (0 to 8 h), 30 μl volumes of treated cultures are serially diluted and plated on LB agar plates.”
The test system of assay [13] is E. coli mdtB knockout strain. The experiment in a line: MIC, efflux pump knockout mdtB. It is filed as cell-based. Particulars: Escherichia coli, read-out: MIC mdtB. The protocol: as §1, with “plate.” for “plate. At various time intervals (0 to 8 h), 30 μl volumes of treated cultures are serially diluted and plated on LB agar plates.”
For assay [14], the system named is E. coli mdfA knockout strain. The experiment in a line: MIC, efflux pump knockout mdfA. The format is cell-based. Particulars: Escherichia coli, read-out: MIC mdfA. The protocol: as §1, with “plate.” for “plate. At various time intervals (0 to 8 h), 30 μl volumes of treated cultures are serially diluted and plated on LB agar plates.”
The test system of assay [15] is E. coli emrY knockout strain. The experiment in a line: MIC, efflux pump knockout emrY. It is filed as cell-based. Particulars: Escherichia coli, read-out: MIC emrY. The protocol:
as §1, with “plate.” for “plate. At various time intervals (0 to 8 h), 30 μl volumes of treated cultures are serially diluted and plated on LB agar plates.”

Assay [16] deals with E. coli emrE knockout strain. As to the kind of experiment: MIC, efflux pump knockout emrE. Particulars: Escherichia coli, read-out: MIC emrE. It is filed as cell-based. The protocol: as §1, with “plate.” for “plate. At various time intervals (0 to 8 h), 30 μl volumes of treated cultures are serially diluted and plated on LB agar plates.”
In assay [17] the test system is E. coli macB knockout strain. The experiment in a line: MIC, efflux pump knockout macB. Particulars: Escherichia coli, read-out: MIC macB. It is filed as cell-based. The protocol: as §1, with “plate.” for “plate. At various time intervals (0 to 8 h), 30 μl volumes of treated cultures are serially diluted and plated on LB agar plates.”
Assay [18] deals with E. coli hsrA knockout strain. The experiment in a line: MIC, efflux pump knockout hsrA. It is filed as cell-based. Particulars: Escherichia coli, read-out: MIC hsrA. The protocol: as §1, with “plate.” for “plate. At various time intervals (0 to 8 h), 30 μl volumes of treated cultures are serially diluted and plated on LB agar plates.”
Assay [19] has as its system E. coli acrF knockout strain. The experiment in a line: MIC, efflux pump knockout acrF. It is filed as cell-based. Particulars: Escherichia coli, read-out: MIC acrF. The protocol:
as §1, with “plate.” for “plate. At various time intervals (0 to 8 h), 30 μl volumes of treated cultures are serially diluted and plated on LB agar plates.”

T2 sequence (P0AE06 25-397): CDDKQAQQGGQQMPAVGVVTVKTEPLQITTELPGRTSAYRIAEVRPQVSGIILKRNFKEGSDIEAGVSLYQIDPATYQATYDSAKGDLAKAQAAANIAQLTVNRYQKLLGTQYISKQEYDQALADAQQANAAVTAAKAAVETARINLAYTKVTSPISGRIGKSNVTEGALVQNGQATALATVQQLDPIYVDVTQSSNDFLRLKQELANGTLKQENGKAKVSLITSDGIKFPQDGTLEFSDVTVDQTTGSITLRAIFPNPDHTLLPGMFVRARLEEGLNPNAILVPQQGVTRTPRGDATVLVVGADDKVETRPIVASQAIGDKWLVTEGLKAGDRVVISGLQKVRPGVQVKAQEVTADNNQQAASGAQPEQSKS
T2 sequence (P31224 whole entry): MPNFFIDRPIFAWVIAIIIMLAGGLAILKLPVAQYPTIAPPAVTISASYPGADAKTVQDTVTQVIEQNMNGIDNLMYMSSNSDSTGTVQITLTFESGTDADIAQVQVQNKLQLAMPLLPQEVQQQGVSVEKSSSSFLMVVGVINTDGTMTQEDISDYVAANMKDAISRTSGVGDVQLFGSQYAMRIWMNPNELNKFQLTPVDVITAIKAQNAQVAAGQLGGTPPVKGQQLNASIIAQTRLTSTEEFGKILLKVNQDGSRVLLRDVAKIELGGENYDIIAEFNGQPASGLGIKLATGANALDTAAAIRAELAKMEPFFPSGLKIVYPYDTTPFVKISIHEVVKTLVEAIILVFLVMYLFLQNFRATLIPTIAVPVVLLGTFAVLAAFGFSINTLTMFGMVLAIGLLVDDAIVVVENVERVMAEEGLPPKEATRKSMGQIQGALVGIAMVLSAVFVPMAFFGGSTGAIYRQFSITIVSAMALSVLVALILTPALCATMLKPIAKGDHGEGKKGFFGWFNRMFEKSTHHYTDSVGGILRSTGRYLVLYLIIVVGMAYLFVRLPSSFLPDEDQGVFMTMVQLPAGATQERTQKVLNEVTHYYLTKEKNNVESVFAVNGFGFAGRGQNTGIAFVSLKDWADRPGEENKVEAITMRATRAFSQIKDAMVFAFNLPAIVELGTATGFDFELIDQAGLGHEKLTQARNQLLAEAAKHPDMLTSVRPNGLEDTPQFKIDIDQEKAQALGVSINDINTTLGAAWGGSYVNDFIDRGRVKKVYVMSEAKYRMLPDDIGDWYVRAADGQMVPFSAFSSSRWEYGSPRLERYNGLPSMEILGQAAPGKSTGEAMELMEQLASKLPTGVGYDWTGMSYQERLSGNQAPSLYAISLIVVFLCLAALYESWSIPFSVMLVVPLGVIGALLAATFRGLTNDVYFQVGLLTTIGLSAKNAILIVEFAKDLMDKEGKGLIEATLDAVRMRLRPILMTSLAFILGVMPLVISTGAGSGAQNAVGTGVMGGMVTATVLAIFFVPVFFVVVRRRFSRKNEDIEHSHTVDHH
T2 sequence (P02930 23-493, further chain): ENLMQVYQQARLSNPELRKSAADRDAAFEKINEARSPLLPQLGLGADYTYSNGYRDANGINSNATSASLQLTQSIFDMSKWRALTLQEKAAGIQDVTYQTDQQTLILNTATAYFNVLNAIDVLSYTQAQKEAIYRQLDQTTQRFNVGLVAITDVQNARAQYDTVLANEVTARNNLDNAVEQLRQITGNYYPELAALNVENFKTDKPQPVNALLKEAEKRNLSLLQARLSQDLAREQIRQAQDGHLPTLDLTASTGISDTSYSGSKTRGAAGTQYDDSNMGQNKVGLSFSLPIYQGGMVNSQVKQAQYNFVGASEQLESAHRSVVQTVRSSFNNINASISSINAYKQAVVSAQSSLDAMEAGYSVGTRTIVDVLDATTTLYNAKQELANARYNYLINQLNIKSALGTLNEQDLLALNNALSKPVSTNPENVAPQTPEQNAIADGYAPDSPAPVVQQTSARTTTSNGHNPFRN
T1 sequence (P31224 whole entry): as the sequence (P31224 whole entry) above

On to `NC(N)=NCCC[C@H](NC(=O)[C@@H](N)Cc1ccccc1)C(=O)Nc1ccc2ccccc2c1` [PAβN, Phenylalanine-Arginine Beta-Naphthylamide, reference compound] (H-Phe-Arg-βNA), for which the “∆Tm” value at AcrB turned out to be 3.84 °C. Besides, the Tefflux50 in assay [1] (1µM compound, time for 50% of Nile red to be effluxed, read for 200 seconds) worked out at 200 s; in assay [1] (9µM compound), 200 s; in assay [1] (27µM compound), 200 s; in assay [1] (81µM compound) it was 200 s; in [1] (100µM compound), 200 s; in assay [1] (200µM compound), 200 s. This molecule displayed a Tefflux50 in [1] (400µM compound) of 200 s.
As for `O=C(O)c1cn(C2CC2)c2cc(N3CCNCC3)c(F)cc2c1=O` [ciprofloxacin, reference compound], the “Log10CFU Mean Diff. vs. Untreated Controls” value in the assay on E. coli BW25113 was determined as 3.212 Log10CFU; with E. coli ∆acrB JW0451-2 [2] (Study TI-2014-007, ∆acrB JW0451-2, 100mg/kg per oral, 6 hours post treatment), 3.477 Log10CFU; with E. coli ∆acrB JW0451-2 [2] (Study TI-2014-008, ∆acrB JW0451-2, 100mg/kg per oral) it was 3.098 Log10CFU.
Consider `CN(C)[C@@H]1C(O)=C(C(N)=O)C(=O)[C@@]2(O)C(O)=C3C(=O)c4c(O)cccc4[C@@](C)(O)[C@H]3C[C@@H]12` [tetracycline, reference compound], for which the MIC in the assay with E. coli ∆tolC JW5503-1 came out at 0.3 µg/mL (≈ 0.675 µM); in assay [3], 1.2 µg/mL (≈ 2.7 µM); in assay [4], 1.2 µg/mL (≈ 2.7 µM); in assay [5] it was 1.2 µg/mL (≈ 2.7 µM); in assay [6], 1.2 µg/mL (≈ 2.7 µM); in assay [7], 1.2 µg/mL (≈ 2.7 µM). Also, the MIC in assay [8] is 1.2 µg/mL (≈ 2.7 µM); with E. coli ∆acrB JW0451-2 [9] it was 0.3 µg/mL (≈ 0.675 µM); in [10], 1.2 µg/mL (≈ 2.7 µM); in assay [11], 1.2 µg/mL (≈ 2.7 µM); in [12] it was 1.2 µg/mL (≈ 2.7 µM); in assay [13] it was 1.2 µg/mL (≈ 2.7 µM). For the same molecule, the minimal inhibitory concentration (MIC) in [14], in assay [15], in [16], in assay [17], in assay [18] and in assay [19] was 1.2 µg/mL (≈ 2.7 µM) each time.
